This is an account of results in publication PMC6651170, “New HSV-1 Anti-Viral 1′-Homocarbocyclic Nucleoside Analogs with an Optically Active Substituted Bicyclo[2.2.1]Heptane Fragment as a Glycoside Moiety” (Molecules, 2019).

In data set [1] the test system is Influenza virus (Flu A, strain A/Puerto Rico/8/34 (H1N1)). The data set is described as follows: microbe, parasite or virus in culture. The data set is classed as cell-based. The note with it: read-out: IC50 Influenza Virus.
Data set [2] deals with herpes simplex virus type 1 (HSV-1). The data set is described as follows: microbe, parasite or virus in culture. The note with it: for IC50: read-out: IC50 Herpes Simplex Virus Type 1. Type of data set: cell-based.
Data set [3] deals with human adenovirus type 5 (AdV5). The data set is described as follows: microbe, parasite or virus in culture. Type of data set: cell-based. The note with it: read-out: IC50 Human Adenovirus Type 5.
A further data set relates to Yellow Fever Virus. The data set is described as follows: microbe, parasite or virus in culture. Type of data set: cell-based. The note with it: read-out: IC50 Yellow Fever Virus.
For a further data set, the system named is Chikungunya Virus. Description: microbe, parasite or virus in culture. The data set is classed as cell-based. The note with it: read-out: IC50 Chikungunya Virus.
In another data set the test system is Enterovirus 71. The data set is described as follows: microbe, parasite or virus in culture. The data set is classed as cell-based. The note with it: read-out: IC50 Enterovirus 71.
Data set [4] is described as follows: in vitro. The note with it: dog.
A short description of data set [5]: in vitro. The note with it: African green monkey.
Data set [6] is described as follows: in vitro.
A short description of data set [7]: in vitro. The source holds these as a separate data set.
Data set [8] can be described thus: in vitro. This is another data set of the same source.
For another data set, the system named is HCMV. The conditions noted are these: read-out: IC50 against HCMV; cited from earlier work.
In a further data set the test system is EpsteinBarr virus. The note with it: read-out: IC50 against EpsteinBarr virus; cited from earlier work.
For a further data set, the system named is VZV. The note with it: cited from earlier work.
The next data set relates to herpes. The note with it: cited from earlier work.
In another data set the test system is Molt4/C8. The note with it: cited from earlier work.
The test system of the next data set is L1210/0. The conditions noted are these: cited from earlier work.
The next data set deals with VZV/TK^- strain. The note with it: read-out: EC50 against VZV/TK- strain; cited from earlier work.
Another data set relates to cytomegalovirus AD169. The note with it: read-out: EC50 against cytomegalovirus AD169 strain; cited from earlier work.
Data set [9] has as its system cytomegalovirus DAVIS 07/1. The conditions noted are these: read-out: EC50 against cytomegalovirus DAVIS 07/1 strain; cited from earlier work.
The next data set concerns coxsackievirus B4. The note with it: cited from earlier work.
The test system of data set [10] is cells.
Data set [11] deals with cells. This is another data set of the same source.
The subject of data set [12] is cells. This is another data set of the same source.
[13] abbreviates: unidentified influenza virus, H1N1, MDCK, 48 h.
[14] abbreviates: Human alphaherpesvirus 1, Vero, 72 h.
Setting [15] is: Human mastadenovirus C, Vero, 72 h.
Setting [16] is: CC50 (Herpes Simplex Virus Type 1).

Converted amounts (≈) assume the structure as drawn. Where two headings read alike, the source gives them in different places. A value given as a limit tells only on which side of the number the result lay.

With `OC1C[C@H]2[C@H](Cn3cnc4c(N5CCOCC5)ncnc43)[C@@H]1C[C@@H]2Cl` (stereo partly drawn) [Compound 6h, (1S,4S,5S,7R)-5-Chloro-7-((6-morpholino-9H-purin-9-yl)methyl)bicyclo[2.2.1]heptan-2-ol], the IC50 in data set [1] (setting [13]) was 196 ± 15 µM; in data set [2] (setting [14]), 341 ± 40 µM; in data set [3] (setting [15]), more than 600 µM; with Yellow Fever Virus (Yellow fever virus) it was more than 100 µM; in the data set with Chikungunya Virus (Chikungunya virus) it was more than 100 µM; in the data set on Enterovirus 71 (Enterovirus A), more than 100 µM. Further, the CC50 was more than 600 µM in the data set “in vitro [4]”; more than 600 µM in the data set “in vitro [5]” (setting [16]); more than 600 µM in the data set “in vitro [5]” (CC50 (Human Adenovirus Type 5)); more than 100 µM in the data set “in vitro [6]”; more than 100 µM in “in vitro [7]”; more than 100 µM in the data set “in vitro [8]”.
For the compound `Oc1ccc(CCNc2ncnc3c2ncn3C[C@H]2[C@@H]3CC(O)[C@H]2C[C@@H]3Cl)cc1` (stereo partly drawn) [Compound 6i, (1S,4S,5S,7R)-5-Chloro-7-((6-((4-hydroxyphenethyl)amino)-9H-purin-9-yl)methyl)bicyclo[2.2.1]heptan-2-ol], the IC50 in data set [1] (setting [13]) is more than 72 µM; in [2] (setting [14]) it was 155 ± 13 µM; in data set [3] (setting [15]) it was more than 72 µM; in the data set on Yellow Fever Virus (Yellow fever virus), more than 100 µM; in the data set with Chikungunya Virus (Chikungunya virus), more than 100 µM; in the data set with Enterovirus 71 (Enterovirus A) it was 79 µM. The CC50 is 124 ± 9 µM in the data set “in vitro [4]”; 447 ± 31 µM in “in vitro [5]” (setting [16]); 217 ± 17 µM in the data set “in vitro [5]” (CC50 (Human Adenovirus Type 5)); more than 100 µM in the data set “in vitro [6]”; more than 100 µM in the data set “in vitro [7]”; more than 100 µM in the data set “in vitro [8]”.
Regarding `OC1C[C@H]2[C@H](Cn3cnc4c(NCCc5ccccc5)ncnc43)[C@@H]1C[C@@H]2Cl` (stereo partly drawn) [Compound 6k, (1S,4S,5S,7R)-5-Chloro-7-((6-(phenethylamino)-9H-purin-9-yl)methyl)bicyclo[2.2.1]heptan-2-ol], the IC50 is 74 ± 8 µM in data set [1] (setting [13]); 48 ± 6 µM in data set [2] (setting [14]); more than 75 µM in [3] (setting [15]); more than 100 µM with Yellow Fever Virus (Yellow fever virus); more than 100 µM in the data set on Chikungunya Virus (Chikungunya virus); 25 ± 5.6 µM in the data set with Enterovirus 71 (Enterovirus A). For the same compound, the CC50 in “in vitro [4]” was 254 ± 21 µM; in “in vitro [5]” (setting [16]) it was 185 ± 16 µM; in “in vitro [5]” (CC50 (Human Adenovirus Type 5)), 245 ± 18 µM; in the data set “in vitro [6]”, more than 100 µM; in “in vitro [7]”, more than 100 µM; in “in vitro [8]”, more than 100 µM.
`COc1ncnc2c1ncn2C[C@H]1[C@@H]2CC(O)[C@H]1C[C@@H]2Cl` (stereo partly drawn) [Compound 7a, (1S,4S,5S,7R)-5-Chloro-7-((6-methoxy-9H-purin-9-yl)methyl)bicyclo[2.2.1]heptan-2-ol]: the IC50 is 233 ± 33 µM in [1] (setting [13]); more than 972 µM in data set [2] (setting [14]); more than 972 µM in data set [3] (setting [15]); more than 100 µM in the data set with Yellow Fever Virus (Yellow fever virus); more than 100 µM in the data set with Chikungunya Virus (Chikungunya virus); more than 100 µM in the data set with Enterovirus 71 (Enterovirus A). The CC50 is more than 972 µM in the data set “in vitro [4]”; more than 972 µM in “in vitro [5]” (setting [16]); more than 972 µM in the data set “in vitro [5]” (CC50 (Human Adenovirus Type 5)); more than 100 µM in the data set “in vitro [6]”; more than 100 µM in “in vitro [7]”; more than 100 µM in “in vitro [8]”.
For the compound `CCOc1ncnc2c1ncn2C[C@H]1[C@@H]2CC(O)[C@H]1C[C@@H]2Cl` (stereo partly drawn) [Compound 7b, (1S,4S,5S,7R)-5-Chloro-7-((6-ethoxy-9H-purin-9-yl)methyl)bicyclo[2.2.1]heptan-2-ol], the IC50 in data set [1] (setting [13]) is more than 929 µM; in data set [2] (setting [14]), 524 ± 63 µM; in data set [3] (setting [15]), more than 929 µM; in the data set with Yellow Fever Virus (Yellow fever virus) it was more than 100 µM; with Chikungunya Virus (Chikungunya virus) it was more than 100 µM; in the data set with Enterovirus 71 (Enterovirus A) it was more than 100 µM. Besides, the CC50 in “in vitro [4]” is more than 929 µM; in “in vitro [5]” (setting [16]), more than 929 µM; in “in vitro [5]” (CC50 (Human Adenovirus Type 5)) it was more than 929 µM; in the data set “in vitro [6]”, more than 100 µM; in the data set “in vitro [7]” it was more than 100 µM; in “in vitro [8]” it was more than 100 µM.
Take `Nc1ncnc2c1ncn2/C=C1/C[C@H]1CO` [III]: the IC50 with HCMV is 1000 to 2100 nM; with EpsteinBarr virus it was 200 nM.
With `O=c1[nH]c(=O)n(CC2(CO)CC2CO)cc1C=CBr` (stereo not shown) [II], in the data set with VZV, the “anti-VZV activity, IC50” value was 0.027 µg/mL.
Turning to `Nc1nc2c(ncn2/C=C2/C[C@H]2CO)c(=O)[nH]1` [IV], the IC50 was 40 to 2100 nM in the data set with HCMV and 300 nM in the data set on EpsteinBarr virus.
As for `Nc1nc2c(ncn2CC2(CO)CC2CO)c(=O)[nH]1` (stereo not shown) [I], the “antiherpetic activity in words” value with herpes is recorded as “extremely potent antiherpetic activity”.
For the compound `Nc1nc(Cl)c2nc[nH]c2n1` [V (6-Cl-2-amino-purine)], in the data set with Molt4/C8, the “IC50 Molt4/C8, cytostatic activity” value is on record as 13.2 µg/mL (≈ 77.8 µM). Further, the “IC50 L1210/0, cytostatic activity” value in the data set with L1210/0 is 16.2 µg/mL (≈ 95.5 µM).
For `Nc1nc(Cl)c2nc[nH]c2n1` [VIII (6-Cl-2-aminopurine)], the EC50 was 2100 nM with VZV/TK^- strain, 440 nM in the data set on cytomegalovirus AD169 and 390 nM in data set [9].
Consider `OCC(Cc1ccccc1)Nc1ncnc2c1ncn2C1CC2C(Cl)CC1C2CO` (stereo not shown) [Xc], for which, in the data set with coxsackievirus B4, the “EC50 against coxsackievirus B4” value was 0.6 µg/mL (≈ 1.4 µM).
Consider `Nc1nc(O)c2ncn(COC(CO)CO)c2n1` [ganciclovir], for which the EC50 in the data set with cytomegalovirus AD169 is 250 nM; in [9] it was 400 nM.
For the compound “(1S,4S,5S,7R)-5-Chloro-7-((6-((4-hydroxyphenethyl)amino)-9H-purin-9-yl)methyl)bicyclo[2.2.1]heptan-2-ol [Compound 6j]”, the IC50 was more than 234 µM in [1]; 15 ± 2 µM in [2]; more than 70 µM in [3]; more than 100 µM in the data set with Yellow Fever Virus; more than 100 µM in the data set on Chikungunya Virus; 42 ± 3.2 µM with Enterovirus 71. Moreover, the “activity against HSV-1 in words” value in [2] is “active against herpes”. Also, the CC50 was 467 ± 28 µM with MDCK cells, more than 100 µM in the data set with cells [10], more than 100 µM with cells [11] and more than 100 µM in the data set on cells [12].
